Each structure is given as a SMILES string.

Targets include GAK (Homo sapiens, UniProt O14976); CLK2 (Homo sapiens, UniProt P49760); TEC (Homo sapiens, UniProt P42680); PIM1 (Homo sapiens, UniProt P11309); KIT(D816V) (Homo sapiens, UniProt P10721, D816V); TLK1 (Homo sapiens, UniProt Q9UKI8); BRSK1 (Homo sapiens, UniProt Q8TDC3); WNK2 (Homo sapiens, UniProt Q9Y3S1); EGFR(G719S) (Homo sapiens, UniProt P00533, G719S); EPHA1 (Homo sapiens, UniProt P21709); CSNK2A1 (Homo sapiens, UniProt P68400); MAK (Homo sapiens, UniProt P20794); PIK3CA(E545A) (Homo sapiens, UniProt P42336, E545A); PRKG2 (Homo sapiens, UniProt Q13237); ACVR1B (Homo sapiens, UniProt P36896); PRKD1 (Homo sapiens, UniProt Q15139); BTK (Homo sapiens, UniProt Q06187); BMPR1B (Homo sapiens, UniProt O00238); EGFR(L858R,T790M) (Homo sapiens, UniProt P00533, L858R/T790M).

Assay in all cases: biochemical
Common to all, as to parameters: KINOMEscan active-site-directed competition binding panel, 468 kinases, percent of DMSO control at 1 uM
Common to all, as to conditions: KINOMEscan binding, percent of DMSO control; read-out: Ctrl%

The target of assay [1] is T1, ABL1(F317L)-phosphorylated (Homo sapiens, UniProt P00519, F317L).
T1 construct: phosphorylated

The target of the next assay is T2, VEGFR2 (Homo sapiens, UniProt P35968).
T2 construct: gene KDR

A further assay concerns the target T3, YANK3 (Homo sapiens, UniProt Q86UX6).
T3 construct: gene STK32C

The next assay concerns the target T4, DCAMKL2 (Homo sapiens, UniProt Q8N568).
T4 construct: gene DCLK2

In another assay the target is T5, S6K1 (Homo sapiens, UniProt P23443).
T5 construct: gene RPS6KB1
T5 sequence (P23443 whole entry): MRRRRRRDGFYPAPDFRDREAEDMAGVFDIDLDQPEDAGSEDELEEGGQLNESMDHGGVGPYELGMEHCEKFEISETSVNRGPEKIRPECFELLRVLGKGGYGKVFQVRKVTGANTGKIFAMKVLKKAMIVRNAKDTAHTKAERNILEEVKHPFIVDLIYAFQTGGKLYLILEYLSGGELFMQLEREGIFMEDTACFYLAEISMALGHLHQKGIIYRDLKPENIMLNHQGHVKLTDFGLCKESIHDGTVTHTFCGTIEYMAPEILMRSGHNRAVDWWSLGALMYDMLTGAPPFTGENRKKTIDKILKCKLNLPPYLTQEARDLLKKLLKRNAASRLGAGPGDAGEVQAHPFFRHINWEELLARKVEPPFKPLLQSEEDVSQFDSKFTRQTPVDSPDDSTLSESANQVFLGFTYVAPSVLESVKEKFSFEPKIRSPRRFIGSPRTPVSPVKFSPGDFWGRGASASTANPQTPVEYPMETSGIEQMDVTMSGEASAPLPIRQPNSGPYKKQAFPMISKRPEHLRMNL

Sequence of KIT(D816V) (P10721 whole entry D816V): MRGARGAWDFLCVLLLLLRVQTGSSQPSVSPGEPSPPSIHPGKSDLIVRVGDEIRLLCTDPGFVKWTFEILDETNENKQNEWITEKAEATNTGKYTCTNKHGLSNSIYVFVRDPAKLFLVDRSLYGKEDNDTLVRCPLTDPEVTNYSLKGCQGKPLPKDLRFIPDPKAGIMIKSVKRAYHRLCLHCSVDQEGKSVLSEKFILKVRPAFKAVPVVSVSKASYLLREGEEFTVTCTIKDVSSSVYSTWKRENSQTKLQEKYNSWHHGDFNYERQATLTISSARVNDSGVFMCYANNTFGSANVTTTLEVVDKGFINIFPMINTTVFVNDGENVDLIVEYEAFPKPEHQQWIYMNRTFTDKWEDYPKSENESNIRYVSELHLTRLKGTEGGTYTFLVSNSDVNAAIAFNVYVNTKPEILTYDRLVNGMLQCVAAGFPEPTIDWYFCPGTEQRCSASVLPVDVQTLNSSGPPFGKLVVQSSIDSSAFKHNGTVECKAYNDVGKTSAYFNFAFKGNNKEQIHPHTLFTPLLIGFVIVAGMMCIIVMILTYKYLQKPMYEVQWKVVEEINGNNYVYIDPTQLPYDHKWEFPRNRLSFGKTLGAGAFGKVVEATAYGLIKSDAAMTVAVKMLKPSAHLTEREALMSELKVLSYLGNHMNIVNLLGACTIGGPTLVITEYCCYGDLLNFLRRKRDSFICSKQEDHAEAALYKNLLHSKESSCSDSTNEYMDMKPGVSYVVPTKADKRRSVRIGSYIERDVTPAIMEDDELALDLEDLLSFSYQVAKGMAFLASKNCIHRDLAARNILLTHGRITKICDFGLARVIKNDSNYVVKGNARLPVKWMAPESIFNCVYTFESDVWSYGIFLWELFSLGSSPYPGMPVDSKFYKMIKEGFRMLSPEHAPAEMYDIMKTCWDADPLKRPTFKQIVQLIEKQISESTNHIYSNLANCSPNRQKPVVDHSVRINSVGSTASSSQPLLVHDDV
Sequence of PIM1 (P11309 whole entry): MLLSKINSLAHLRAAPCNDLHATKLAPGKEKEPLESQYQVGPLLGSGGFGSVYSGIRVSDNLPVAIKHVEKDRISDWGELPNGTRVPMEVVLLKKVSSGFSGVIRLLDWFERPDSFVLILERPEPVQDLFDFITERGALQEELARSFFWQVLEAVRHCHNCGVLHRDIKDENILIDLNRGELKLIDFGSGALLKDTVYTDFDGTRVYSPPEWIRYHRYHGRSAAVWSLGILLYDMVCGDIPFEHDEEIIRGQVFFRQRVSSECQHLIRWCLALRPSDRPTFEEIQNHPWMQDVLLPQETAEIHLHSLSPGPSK
Sequence of PRKD1 (Q15139 whole entry): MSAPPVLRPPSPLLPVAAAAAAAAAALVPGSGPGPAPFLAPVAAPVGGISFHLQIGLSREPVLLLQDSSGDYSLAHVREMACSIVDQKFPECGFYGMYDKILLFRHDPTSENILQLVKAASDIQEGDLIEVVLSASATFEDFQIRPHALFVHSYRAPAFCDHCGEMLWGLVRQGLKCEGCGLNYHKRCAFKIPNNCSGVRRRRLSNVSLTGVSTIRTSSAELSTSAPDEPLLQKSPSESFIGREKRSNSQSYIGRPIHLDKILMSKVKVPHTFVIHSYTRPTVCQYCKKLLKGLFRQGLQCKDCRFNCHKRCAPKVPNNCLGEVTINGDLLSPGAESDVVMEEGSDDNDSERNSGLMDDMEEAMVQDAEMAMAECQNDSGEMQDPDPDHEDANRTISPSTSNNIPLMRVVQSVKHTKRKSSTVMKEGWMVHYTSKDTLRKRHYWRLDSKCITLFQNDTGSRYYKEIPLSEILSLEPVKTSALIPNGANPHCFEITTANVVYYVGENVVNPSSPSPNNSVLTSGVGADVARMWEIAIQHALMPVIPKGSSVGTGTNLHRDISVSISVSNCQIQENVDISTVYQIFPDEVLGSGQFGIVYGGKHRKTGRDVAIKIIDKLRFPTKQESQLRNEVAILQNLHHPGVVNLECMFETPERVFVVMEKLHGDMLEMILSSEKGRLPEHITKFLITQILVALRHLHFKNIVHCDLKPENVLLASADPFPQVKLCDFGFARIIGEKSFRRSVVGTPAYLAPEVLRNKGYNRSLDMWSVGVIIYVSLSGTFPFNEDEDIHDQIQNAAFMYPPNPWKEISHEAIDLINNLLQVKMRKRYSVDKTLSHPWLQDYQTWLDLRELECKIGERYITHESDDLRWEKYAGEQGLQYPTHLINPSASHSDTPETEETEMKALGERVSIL
Sequence of EGFR(L858R,T790M) (P00533 whole entry T790M/L858R): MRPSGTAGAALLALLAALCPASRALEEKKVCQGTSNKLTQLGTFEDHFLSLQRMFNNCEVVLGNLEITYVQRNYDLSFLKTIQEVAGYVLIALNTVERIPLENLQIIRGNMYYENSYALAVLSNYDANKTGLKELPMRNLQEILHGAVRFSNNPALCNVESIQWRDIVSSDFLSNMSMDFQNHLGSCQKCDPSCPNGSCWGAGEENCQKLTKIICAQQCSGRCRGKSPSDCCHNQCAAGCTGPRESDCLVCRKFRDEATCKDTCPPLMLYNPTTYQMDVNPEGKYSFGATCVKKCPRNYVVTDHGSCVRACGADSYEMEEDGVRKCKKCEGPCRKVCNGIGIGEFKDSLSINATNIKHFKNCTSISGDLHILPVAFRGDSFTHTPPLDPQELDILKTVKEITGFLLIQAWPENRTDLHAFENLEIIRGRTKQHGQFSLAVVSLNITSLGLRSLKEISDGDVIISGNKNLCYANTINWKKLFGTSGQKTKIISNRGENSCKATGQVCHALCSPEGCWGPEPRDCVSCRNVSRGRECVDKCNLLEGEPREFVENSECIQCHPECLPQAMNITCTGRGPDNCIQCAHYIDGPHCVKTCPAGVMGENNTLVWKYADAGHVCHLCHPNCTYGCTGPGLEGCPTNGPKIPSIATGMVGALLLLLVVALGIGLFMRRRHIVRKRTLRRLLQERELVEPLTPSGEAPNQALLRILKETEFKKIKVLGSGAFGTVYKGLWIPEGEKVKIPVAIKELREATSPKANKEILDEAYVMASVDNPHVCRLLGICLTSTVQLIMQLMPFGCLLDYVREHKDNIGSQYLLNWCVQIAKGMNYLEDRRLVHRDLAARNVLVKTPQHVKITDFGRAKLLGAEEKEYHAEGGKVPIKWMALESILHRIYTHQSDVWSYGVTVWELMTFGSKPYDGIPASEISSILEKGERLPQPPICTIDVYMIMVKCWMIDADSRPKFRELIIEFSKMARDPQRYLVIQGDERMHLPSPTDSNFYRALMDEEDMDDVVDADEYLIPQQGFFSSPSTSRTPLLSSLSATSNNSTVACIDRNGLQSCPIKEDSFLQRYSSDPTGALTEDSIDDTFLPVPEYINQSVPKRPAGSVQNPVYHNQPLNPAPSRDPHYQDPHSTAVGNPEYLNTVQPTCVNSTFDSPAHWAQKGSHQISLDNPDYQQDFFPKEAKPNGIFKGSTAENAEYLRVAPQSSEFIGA
T4 sequence (Q8N568 whole entry): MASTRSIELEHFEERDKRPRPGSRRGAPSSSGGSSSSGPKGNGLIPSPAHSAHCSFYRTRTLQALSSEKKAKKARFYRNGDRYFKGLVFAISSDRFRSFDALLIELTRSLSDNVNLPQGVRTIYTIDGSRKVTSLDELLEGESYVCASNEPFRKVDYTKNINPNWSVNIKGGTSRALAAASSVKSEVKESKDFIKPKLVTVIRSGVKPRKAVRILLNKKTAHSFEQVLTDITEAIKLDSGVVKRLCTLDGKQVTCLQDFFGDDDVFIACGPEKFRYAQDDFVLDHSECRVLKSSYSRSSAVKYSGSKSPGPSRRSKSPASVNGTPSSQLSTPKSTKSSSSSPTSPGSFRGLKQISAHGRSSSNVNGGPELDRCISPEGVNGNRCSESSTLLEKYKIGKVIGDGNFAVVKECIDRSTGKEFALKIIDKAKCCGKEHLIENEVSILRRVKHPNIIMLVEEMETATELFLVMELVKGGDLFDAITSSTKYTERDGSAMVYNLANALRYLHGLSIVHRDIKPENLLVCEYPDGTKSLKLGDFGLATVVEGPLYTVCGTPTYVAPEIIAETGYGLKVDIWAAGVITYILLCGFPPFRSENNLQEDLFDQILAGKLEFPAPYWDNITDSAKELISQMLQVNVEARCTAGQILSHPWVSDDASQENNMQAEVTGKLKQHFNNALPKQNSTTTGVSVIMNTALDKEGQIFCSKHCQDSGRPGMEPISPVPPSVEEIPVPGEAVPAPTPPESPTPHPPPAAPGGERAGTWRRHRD

In the case of `Cc1ccc(NC(=O)c2cccc(C(F)(F)F)c2)cc1Nc1cc(-c2cccnc2)nc2[nH]ccc12` [HZX-02-059], the remaining binding at 1 µM was determined as 65% in assay [1]; 100% at VEGFR2; 91% on GAK; 92% at CLK2; 81% on YANK3; 96% at TEC. Further, the remaining binding at 1 µM worked out at 96% on DCAMKL2; 92% at PIM1; 93% at KIT(D816V); 95% at TLK1; 97% on BRSK1; 100% on WNK2. For the same compound, the remaining binding at 1 µM at EGFR(G719S) turned out to be 97%; at EPHA1, 78%; at CSNK2A1, 81%; at MAK, 95%; at PIK3CA(E545A), 88%; on PRKG2 it was 89%. Besides, the remaining binding at 1 µM is 72% on ACVR1B; 96% on PRKD1; 100% on BTK; 91% at BMPR1B; 95% at S6K1; 79% at EGFR(L858R,T790M).

The values above are taken from paper PMC8799717, “Pharmacological targeting PIKfyve and tubulin as an effective treatment strategy for double-hit lymphoma” (Cell Death Discovery, 2022).
